# Patent publication US7687522B2, “Substituted pyridines and pyrimidines and their use in treatment of cancer” (Amgen Inc., priority 2006, dated 2010)
# Molecular target: T1, c-Met (Homo sapiens, UniProt P08581)
# T1 construct: A PCR product covering residues 1058-1365 of c-Met (c-Met kinase domain) is generated; made in house; host or cells: baculovirus-infected (insect) cells
# Assay: c-Met receptor assay (HTRF kinase assay with GST-cMet (P) enzyme, gastrin substrate)
# Assay type: biochemical
# Protocol: A PCR product covering residues 1058-1365 of c-Met (c-Met kinase domain) is generated as described in WO 06/116,713 the entirety of which is incorporated herein by reference.
# Baculovirus cells are broken in 5× (volume/weight) of Lysis Buffer (50 mM HEPES, pH 8.0, 0.25 M NaCl, 5 mM mercaptoethanol, 10% glycerol plus Complete Protease Inhibitors (Roche (#10019600), 1 tablet per 50 mL buffer). The lysed cell suspension is centrifuged at 100,000×g (29,300 rpm) in a Beckman ultracentrifuge Ti45 rotor for 1 h. The supernatant is incubated with 10 ml of Glutathione Sepharose 4B from Amersham Biosciences (#27-4574-01). Incubation is carried out overnight in a cold room (approximately 8° C.). The resin and supernatant is poured into an appropriately sized disposable column and the flow through supernatant was collected. The resin is washed with 10 column volumes (100 mL) of Lysis Buffer. The GST-cMET is eluted with 45 mL of 10 mM Glutathione (Sigma #G-4251) in Lysis Buffer. The elution is collected as 15 mL fractions. Aliquots of the elution fractions are run on SDS PAGE (12% Tris Glycine gel, Invitrogen, #EC6005BOX). The gel is stained with 0.25% Coomassie Blue stain. Fractions with GST-cMET are concentrated with a Vivaspin 20 mL Concentrator (#VS2002; […]) to a final volume less than 2.0 ml. The concentrated GST-cMET solution is applied to a Superdex 75 16/60 column (Amersham Biosciences # 17-1068-01) equilibrated with 25 mM Tris, pH 7.5, 100 mM NaCl, 10 mM mercaptoethanol, 10% glycerol. The GST-cMET is eluted with an isocratic run of the above buffer, with the eluent collected in 1.0 mL fractions. Fractions with significant OD280 readings are run on another 12% Tris Glycine gel. The peak tubes with GST-cMET are pooled and the OD280 is read with the column buffer listed above as the blank buffer.
# Phosphorylation of the purified GST-cMET is performed by incubating the protein for 3 h at RT with the following:
# After incubation, the solution is concentrated in a Vivaspin 20 mL Concentrator to a volume less than 2.00 mL. The solution is applied to the same Superdex 75 16/60 column used above after re-equilibration. The GST-cMET is eluted as described above. The elution fractions corresponding to the first eluted peak on the chromatogram are run on a 12% Tris Glycine gel, as above, to identify the fractions with GST-cMET. Fractions are pooled and the OD280 is read with the column buffer used as the blank.
# A Kinase reaction Buffer is prepared as follows:
# When the assay is carried out, freshly add:
# The HTRF buffer contains: 50 mM Tris-HCl (pH 7.5), 100 mM NaCl, 0.1% BSA, 0.05% Tween 20.5 mM EDTA Fresh add SA-APC (PJ25S Phycolink Streptavidin-Allophycocyanin Conjugate, Prozyme Inc.) and Eu-PT66 (Eu-W1024 labeled anti-phosphorotyrosine antibody PT66, AD0069, Lot 168465, Perkin-Elmer Inc.) to reach the final concentration: • 0.1 nM final Eu-PT66 • 11 nM final SA-APC Methods: 1. Dilute GST-cMet (P) enzyme in kinase buffer as follows: Prepare 8 nM GST-cMet (P) working solution (7.32 μM to 8 nM, 915 X, 10 μL to 9.15 mL). In a 96 well clear plate [Costar # 3365] add 100 μL in eleven columns, in one column add 100 μL kinase reaction buffer alone. 2. Assay plate preparation: Use Biomek FX to transfer 10 μL 8 nM GST-cMet (P) enzyme, 48.4 μL kinase reaction buffer, 1.6 μL compound (in DMSO) (Start concentration at 10 mM, 1 mM and 0.1 mM, sequential dilution 1:3 to reach 10 test points) in a 96 well costar clear plate [Costar # 3365], mix several times. Then incubate the plate at RT for 30 min. 3. Prepare Gastrin and ATP working solution in kinase reaction buffer as follows: Prepare 4 μM Gastrin and 16 μM ATP working solution
# Use Biomek FX to add 20 μl ATP and Gastrin working solution to the assay plate to start reaction, incubate the plate at RT for 1 h. 4. Transfer 5 μL reaction product at the end of 1 h into 80 μL HTRF buffer in black plate [Costar # 3356], read on Discover after 30 min incubation.
# T1 sequence (P08581 1058-1365): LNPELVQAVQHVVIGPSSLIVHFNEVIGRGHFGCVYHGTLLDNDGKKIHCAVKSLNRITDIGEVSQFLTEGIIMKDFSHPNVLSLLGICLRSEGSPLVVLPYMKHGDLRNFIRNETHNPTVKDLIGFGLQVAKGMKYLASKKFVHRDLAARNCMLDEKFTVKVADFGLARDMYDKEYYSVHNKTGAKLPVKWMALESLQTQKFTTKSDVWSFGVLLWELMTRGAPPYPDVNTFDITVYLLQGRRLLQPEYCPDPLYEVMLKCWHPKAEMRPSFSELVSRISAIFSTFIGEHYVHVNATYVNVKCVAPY
row,SMILES,Ki [µM]
1,"Cn1c(Nc2ccccc2)ncc(-c2ccc(Oc3ccnc(NC(=O)N4CCCC4)c3)cn2)c1=O [Example 1, N-(4-(6-(1-methyl-6-oxo-2-(phenylamino)-1,6-dihydropyrimidin-5-yl)pyridin-3-yloxy)pyridin-2-yl)pyrrolidine-1-carboxamide]",0.011
2,"Cn1c(Nc2ccccc2F)ncc(-c2ccc(Oc3ccnc(NC(=S)N4CCCC4)c3)cn2)c1=O [Example 3, N-(4-(6-(2-(2-fluorophenylamino)-1-methyl-6-oxo-1,6-dihydropyrimidin-5-yl)pyridin-3-yloxy)pyridin-2-yl)pyrrolidine-1-carbothioamide]",0.11
3,"Cn1c(Nc2ccccc2)ncc(-c2ccc(Oc3ccnc(NC(=O)N4CCOCC4)c3)cn2)c1=O [Example 6, N-(4-(6-(1-methyl-6-oxo-2-(phenylamino)-1,6-dihydropyrimidin-5-yl)pyridin-3-yloxy)pyridin-2-yl)morpholine-4-carboxamide]",0.057
4,"CN1CCN(C(=O)Nc2cc(Oc3ccc(-c4cnc(Nc5ccccc5)n(C)c4=O)nc3)ccn2)CC1 [Example 7, 4-methyl-N-(4-(6-(1-methyl-6-oxo-2-(phenylamino)-1,6-dihydropyrimidin-5-yl)pyridin-3-yloxy)pyridin-2-yl)piperazine-1-carboxamide]",0.087
5,"Cn1c(Nc2ccc(F)cc2)ncc(-c2ccc(Oc3ccnc(NC(=O)N4CCCC4)c3)cn2)c1=O [Example 10, N-(4-(6-(2-(4-fluorophenylamino)-1-methyl-6-oxo-1,6-dihydropyrimidin-5-yl)pyridin-3-yloxy)pyridin-2-yl)pyrrolidine-1-carboxamide]",0.006
6,"Cc1noc(-c2cccc(Nc3nccc(Oc4ccc(-c5cnc(Cc6ccccc6)n(C)c5=O)cc4F)n3)c2)n1 [Example 13, 2-benzyl-5-(3-fluoro-4-(2-(3-(3-methyl-1,2,4-oxadiazol-5-yl)phenylamino)pyrimidin-4-yloxy)phenyl)-3-methylpyrimidin-4(3H)-one]",> 20

# Results, then the molecule that gave them:
row,Ki [µM],SMILES
1,2.34,"CNc1nccc(Oc2ccc(-c3cnc(Cc4ccccc4)n(C)c3=O)cc2F)n1 [Example 14, 2-benzyl-5-(3-fluoro-4-(2-(methylamino)pyrimidin-4-yloxy)phenyl)-3-methylpyrimidin-4(3H)-one]"
2,0.012,"CCn1c(Nc2ccc(F)cc2)ncc(-c2ccc(Oc3ccnc(NC(=O)N4CCC4)c3)c(F)c2)c1=O [Example 21, N-(4-(4-(1-ethyl-2-(4-fluorophenylamino)-6-oxo-1,6-dihydropyrimidin-5-yl)-2-fluorophenoxy)pyridin-2-yl)azetidine-1-carboxamide]"
3,0.011,"Cn1c(Nc2cccc(F)c2)ncc(-c2ccc(Oc3ccnc(NC(=O)N4CCCC4)c3)cn2)c1=O [Example 25, N-(4-(6-(2-(3-fluorophenylamino)-1-methyl-6-oxo-1,6-dihydropyrimidin-5-yl)pyridin-3-yloxy)pyridin-2-yl)pyrrolidine-1-carboxamide]"
4,0.03,"Cn1c(Nc2cccc(F)c2)ncc(-c2ccc(Oc3ccnc(NC(=S)N4CCCC4)c3)cn2)c1=O [Example 26, N-(4-(6-(2-(3-fluorophenylamino)-1-methyl-6-oxo-1,6-dihydropyrimidin-5-yl)pyridin-3-yloxy)pyridin-2-yl)pyrrolidine-1-carbothioamide]"
